Test results taken from BindingDB's records for doi:10.1021/acschembio.6b00250 (Chinese Academy of Sciences, 2016).

Legend:
Test in all cases: Invitrogen SelectScreen Enzymatic Assay
[1] = target: Serine/threonine-protein kinase 16 (Homo sapiens, UniProt O75716)
Method: (§1) The enzymatic assay was performed using the LifeTechnology SelectScreen.

[2] = target: Phosphatidylinositol 3-kinase regulatory subunit alpha/4,5-bisphosphate 3-kinase catalytic subunit alpha isoform (Homo sapiens, UniProt P42336)
Method: as §1

[3] = target: Phosphatidylinositol 3-kinase regulatory subunit alpha/4,5-bisphosphate 3-kinase catalytic subunit delta isoform (Homo sapiens, UniProt O00329)
Method: as §1

[4] = target: Phosphatidylinositol 4-kinase alpha (Homo sapiens, UniProt P42356)
Method: as §1

[5] = target: Phosphatidylinositol 4,5-bisphosphate 3-kinase catalytic subunit gamma isoform (Homo sapiens, UniProt P48736)
Method: as §1

[6] = target: Phosphatidylinositol 4-kinase beta (Homo sapiens, UniProt Q9UBF8)
Method: as §1

[7] = target: Phosphatidylinositol 4-phosphate 3-kinase C2 domain-containing subunit beta (Homo sapiens, UniProt O00750)
Method: as §1

[8] = target: Phosphatidylinositol 3-kinase catalytic subunit type 3 (Homo sapiens, UniProt Q8NEB9)
Method: as §1

[9] = target: Phosphatidylinositol 4-phosphate 3-kinase C2 domain-containing subunit alpha (Homo sapiens, UniProt O00443)
Method: as §1

Sequence of Phosphatidylinositol 4,5-bisphosphate 3-kinase catalytic subunit gamma isoform (P48736 whole entry, canonical isoform): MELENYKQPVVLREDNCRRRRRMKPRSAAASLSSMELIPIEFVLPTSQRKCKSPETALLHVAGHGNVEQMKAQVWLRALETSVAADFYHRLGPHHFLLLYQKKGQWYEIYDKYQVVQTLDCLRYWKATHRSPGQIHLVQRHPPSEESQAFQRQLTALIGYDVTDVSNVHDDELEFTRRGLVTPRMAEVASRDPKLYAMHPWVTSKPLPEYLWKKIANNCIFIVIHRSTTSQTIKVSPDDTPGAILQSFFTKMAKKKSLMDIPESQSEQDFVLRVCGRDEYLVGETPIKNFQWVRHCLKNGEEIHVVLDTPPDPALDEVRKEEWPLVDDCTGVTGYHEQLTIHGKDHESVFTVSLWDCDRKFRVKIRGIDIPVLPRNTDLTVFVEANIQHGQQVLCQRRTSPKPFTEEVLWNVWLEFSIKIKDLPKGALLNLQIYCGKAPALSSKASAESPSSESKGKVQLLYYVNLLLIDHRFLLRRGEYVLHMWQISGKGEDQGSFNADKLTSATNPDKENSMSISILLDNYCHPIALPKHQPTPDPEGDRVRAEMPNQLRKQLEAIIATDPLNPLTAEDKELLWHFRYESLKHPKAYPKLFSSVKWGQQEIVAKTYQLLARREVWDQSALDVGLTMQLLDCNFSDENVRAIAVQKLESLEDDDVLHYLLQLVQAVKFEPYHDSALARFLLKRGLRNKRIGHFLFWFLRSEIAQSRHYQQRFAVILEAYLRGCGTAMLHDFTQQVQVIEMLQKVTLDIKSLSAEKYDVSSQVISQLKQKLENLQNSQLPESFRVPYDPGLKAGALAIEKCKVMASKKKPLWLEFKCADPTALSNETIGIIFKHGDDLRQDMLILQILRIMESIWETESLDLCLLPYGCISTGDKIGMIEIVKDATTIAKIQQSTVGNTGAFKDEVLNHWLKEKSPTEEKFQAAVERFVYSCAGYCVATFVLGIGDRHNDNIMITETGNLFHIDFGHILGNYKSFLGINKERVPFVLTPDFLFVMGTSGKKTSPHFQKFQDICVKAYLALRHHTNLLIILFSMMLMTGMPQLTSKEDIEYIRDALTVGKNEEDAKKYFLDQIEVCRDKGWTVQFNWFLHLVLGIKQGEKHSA
Sequence of Phosphatidylinositol 4-kinase alpha (P42356 whole entry): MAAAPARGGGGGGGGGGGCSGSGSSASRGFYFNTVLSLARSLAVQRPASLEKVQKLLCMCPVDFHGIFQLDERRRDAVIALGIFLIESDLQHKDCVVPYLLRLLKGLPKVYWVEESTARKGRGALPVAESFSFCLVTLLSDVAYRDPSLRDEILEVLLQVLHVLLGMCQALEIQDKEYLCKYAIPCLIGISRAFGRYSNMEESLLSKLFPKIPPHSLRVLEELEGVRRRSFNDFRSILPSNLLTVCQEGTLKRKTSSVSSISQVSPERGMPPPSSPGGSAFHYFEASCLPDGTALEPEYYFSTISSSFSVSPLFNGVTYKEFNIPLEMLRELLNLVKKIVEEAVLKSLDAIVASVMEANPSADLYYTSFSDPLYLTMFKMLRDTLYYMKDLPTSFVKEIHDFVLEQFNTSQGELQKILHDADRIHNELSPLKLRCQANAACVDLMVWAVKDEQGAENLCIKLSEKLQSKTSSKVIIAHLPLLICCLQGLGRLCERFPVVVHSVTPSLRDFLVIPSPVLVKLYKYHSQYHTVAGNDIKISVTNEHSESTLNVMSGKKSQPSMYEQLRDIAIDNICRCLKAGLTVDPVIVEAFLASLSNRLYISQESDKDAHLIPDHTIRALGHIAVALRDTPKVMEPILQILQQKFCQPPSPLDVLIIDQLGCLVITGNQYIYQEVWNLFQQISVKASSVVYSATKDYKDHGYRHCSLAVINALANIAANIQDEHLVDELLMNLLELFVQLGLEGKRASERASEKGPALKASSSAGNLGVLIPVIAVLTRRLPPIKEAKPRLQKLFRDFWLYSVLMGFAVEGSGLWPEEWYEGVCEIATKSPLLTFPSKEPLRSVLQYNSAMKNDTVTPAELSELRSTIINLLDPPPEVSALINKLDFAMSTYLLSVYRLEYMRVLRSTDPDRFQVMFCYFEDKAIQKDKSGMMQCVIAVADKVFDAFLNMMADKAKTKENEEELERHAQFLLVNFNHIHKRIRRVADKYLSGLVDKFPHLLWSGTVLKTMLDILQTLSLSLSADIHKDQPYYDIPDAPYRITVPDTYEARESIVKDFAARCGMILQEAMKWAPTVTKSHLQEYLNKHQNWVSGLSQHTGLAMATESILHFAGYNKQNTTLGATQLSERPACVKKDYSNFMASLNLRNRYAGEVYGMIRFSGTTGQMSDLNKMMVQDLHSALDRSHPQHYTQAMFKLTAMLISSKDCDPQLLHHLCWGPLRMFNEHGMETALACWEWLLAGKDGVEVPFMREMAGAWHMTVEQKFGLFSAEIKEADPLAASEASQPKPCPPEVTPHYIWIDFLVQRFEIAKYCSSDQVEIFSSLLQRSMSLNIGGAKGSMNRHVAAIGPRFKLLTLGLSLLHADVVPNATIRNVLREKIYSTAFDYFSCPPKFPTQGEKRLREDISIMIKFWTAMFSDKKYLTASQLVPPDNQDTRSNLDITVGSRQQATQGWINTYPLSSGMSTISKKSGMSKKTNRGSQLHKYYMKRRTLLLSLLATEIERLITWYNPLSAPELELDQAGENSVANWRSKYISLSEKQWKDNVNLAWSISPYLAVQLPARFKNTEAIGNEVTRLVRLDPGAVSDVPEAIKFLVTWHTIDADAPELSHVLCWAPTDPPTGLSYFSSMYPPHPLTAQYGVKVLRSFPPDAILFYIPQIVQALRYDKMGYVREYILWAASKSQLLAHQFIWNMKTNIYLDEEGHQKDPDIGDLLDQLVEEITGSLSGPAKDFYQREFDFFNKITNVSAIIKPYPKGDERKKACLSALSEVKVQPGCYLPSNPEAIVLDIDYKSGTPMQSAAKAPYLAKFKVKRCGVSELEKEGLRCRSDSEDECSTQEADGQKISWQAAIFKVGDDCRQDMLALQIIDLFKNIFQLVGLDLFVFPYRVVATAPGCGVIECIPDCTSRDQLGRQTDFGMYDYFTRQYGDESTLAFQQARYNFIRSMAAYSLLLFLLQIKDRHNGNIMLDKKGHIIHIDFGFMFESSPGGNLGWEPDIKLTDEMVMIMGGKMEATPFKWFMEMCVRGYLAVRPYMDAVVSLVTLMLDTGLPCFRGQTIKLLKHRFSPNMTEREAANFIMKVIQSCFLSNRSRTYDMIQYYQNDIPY
Sequence of Phosphatidylinositol 4-kinase beta (Q9UBF8 whole entry): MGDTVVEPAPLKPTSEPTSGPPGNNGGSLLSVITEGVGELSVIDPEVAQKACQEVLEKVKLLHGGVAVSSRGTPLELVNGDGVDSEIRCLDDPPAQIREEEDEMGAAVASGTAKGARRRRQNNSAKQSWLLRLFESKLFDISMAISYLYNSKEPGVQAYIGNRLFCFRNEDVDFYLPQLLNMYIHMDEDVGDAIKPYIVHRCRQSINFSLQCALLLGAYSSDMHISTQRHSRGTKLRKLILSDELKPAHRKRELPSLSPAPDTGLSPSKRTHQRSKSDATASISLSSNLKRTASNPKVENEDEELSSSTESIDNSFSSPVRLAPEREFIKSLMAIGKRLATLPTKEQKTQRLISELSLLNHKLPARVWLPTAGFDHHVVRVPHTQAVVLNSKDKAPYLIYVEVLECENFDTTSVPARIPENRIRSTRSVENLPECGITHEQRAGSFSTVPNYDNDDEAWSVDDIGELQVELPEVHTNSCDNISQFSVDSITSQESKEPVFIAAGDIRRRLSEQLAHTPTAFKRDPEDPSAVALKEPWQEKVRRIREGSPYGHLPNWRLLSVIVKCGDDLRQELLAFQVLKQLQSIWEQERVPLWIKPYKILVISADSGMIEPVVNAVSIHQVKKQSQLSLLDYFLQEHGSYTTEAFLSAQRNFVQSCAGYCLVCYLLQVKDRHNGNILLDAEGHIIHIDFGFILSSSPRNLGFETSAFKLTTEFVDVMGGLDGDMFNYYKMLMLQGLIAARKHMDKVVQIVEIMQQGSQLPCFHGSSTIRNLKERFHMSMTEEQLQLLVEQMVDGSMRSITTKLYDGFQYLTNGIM
Sequence of Phosphatidylinositol 3-kinase catalytic subunit type 3 (Q8NEB9 whole entry): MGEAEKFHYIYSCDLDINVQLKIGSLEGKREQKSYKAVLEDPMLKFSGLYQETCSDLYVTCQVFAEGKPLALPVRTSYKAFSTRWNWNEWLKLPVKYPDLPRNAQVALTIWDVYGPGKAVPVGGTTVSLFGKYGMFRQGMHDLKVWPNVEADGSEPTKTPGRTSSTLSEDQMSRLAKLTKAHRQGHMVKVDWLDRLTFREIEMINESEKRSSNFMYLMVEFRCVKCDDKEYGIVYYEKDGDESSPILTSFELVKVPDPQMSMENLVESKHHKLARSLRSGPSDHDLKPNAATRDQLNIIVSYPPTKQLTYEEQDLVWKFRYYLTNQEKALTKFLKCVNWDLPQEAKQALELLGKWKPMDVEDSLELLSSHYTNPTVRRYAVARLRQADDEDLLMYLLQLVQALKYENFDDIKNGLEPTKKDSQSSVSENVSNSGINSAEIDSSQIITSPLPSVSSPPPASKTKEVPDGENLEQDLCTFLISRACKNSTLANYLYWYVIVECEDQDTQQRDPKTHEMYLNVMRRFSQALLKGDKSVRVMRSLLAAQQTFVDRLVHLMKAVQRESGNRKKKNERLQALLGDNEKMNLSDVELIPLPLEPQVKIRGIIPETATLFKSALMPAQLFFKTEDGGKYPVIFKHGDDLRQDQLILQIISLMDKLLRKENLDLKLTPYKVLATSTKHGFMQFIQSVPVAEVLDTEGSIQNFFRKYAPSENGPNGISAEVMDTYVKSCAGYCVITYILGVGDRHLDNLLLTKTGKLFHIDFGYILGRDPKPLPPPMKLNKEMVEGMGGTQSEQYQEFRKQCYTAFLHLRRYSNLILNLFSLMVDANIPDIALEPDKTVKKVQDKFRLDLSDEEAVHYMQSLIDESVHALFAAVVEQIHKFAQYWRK

IC50 [1]: 0.295 µM | IC50 [2]: 1.07 µM | IC50 [3]: 0.856 µM | IC50 [4]: > 10 µM | IC50 [5]: 0.867 µM | IC50 [6]: > 10 µM | IC50 [7]: 9.33 µM | IC50 [8]: 7.94 µM | IC50 [9]: 4.86 µM
Compound: O=c1ccc2cnc3[nH]ccc3c2n1-c1ccc(F)c(O)c1 [STK16-IN-1]
